Experimental findings from patent publication US7109354B2, “Thiophene amidines, compositions thereof, and methods of treating complement-mediated diseases and conditions” (3-Dimensional Pharmaceuticals, Inc., priority 2002, dated 2006) are described below.

Values joined by “and” are separate entries in the source; they are usually repeats but may differ in a detail not shown here. Equal values may be shown once. Where a name gives a salt, the structure may show the parent alone.

One may read the Ki as the equilibrium dissociation constant of an inhibitor or competing ligand from its target. Read a high Ki as lower affinity.

The assay has as its target T1, Activated human C1s (Homo sapiens, UniProt P09871).
T1 construct: purchased Calbiochem (La Jolla, Calif.)
T1 sequence (P09871 438-688 limits assumed): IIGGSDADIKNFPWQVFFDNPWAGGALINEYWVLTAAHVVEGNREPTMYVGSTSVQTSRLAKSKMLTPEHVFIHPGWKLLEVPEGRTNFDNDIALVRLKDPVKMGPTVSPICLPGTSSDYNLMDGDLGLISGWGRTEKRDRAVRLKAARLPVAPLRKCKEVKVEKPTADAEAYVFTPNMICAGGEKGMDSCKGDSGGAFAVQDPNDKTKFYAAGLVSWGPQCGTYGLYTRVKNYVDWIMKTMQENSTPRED
T1 sequence (P09871 16-437 partner limits assumed): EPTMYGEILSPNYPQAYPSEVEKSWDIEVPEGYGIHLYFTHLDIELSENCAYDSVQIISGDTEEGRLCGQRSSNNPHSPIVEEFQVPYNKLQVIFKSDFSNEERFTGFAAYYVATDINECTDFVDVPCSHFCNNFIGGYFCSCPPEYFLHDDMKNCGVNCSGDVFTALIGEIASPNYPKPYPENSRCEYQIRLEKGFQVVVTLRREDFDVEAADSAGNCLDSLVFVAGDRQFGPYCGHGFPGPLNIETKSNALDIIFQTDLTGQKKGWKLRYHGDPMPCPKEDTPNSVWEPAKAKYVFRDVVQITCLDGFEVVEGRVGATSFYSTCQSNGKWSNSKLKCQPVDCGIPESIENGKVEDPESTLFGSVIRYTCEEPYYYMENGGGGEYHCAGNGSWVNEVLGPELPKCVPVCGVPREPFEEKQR
The experiment in a line: In vitro inhibition of C1s (Ki determination, C1s-catalyzed hydrolysis of Z-Gly-Arg-S-Bzl, DTNB readout). The class given is biochemical. Particulars: substrate Z-Gly-Arg-S-Bzl 45 μM, DTNB 200 μM, C1s 2.3 nM, pH 7.5, 37° C., absorbance at 405 nm. Here is the method: Reagents: All buffer salts were obtained from Sigma Chemical Company (St. Louis, Mo.), and were of the highest purity available. DTNB was purchased from Pierce (Rockford, Ill.). Z-Gly-Arg-S-Bzl was purchased from Enzyme Systems Products (Livermore, Calif.). Activated human C1s was purchased from Calbiochem (La Jolla, Calif.).
Test compounds are prepared as a 10 μM solution in DMSO. Dilutions are prepared in DMSO yielding 7 final concentrations encompassing a 700-fold concentration range.
Reactions were initiated by the addition of a 10 μL aliquot of the enzyme, and the absorbance increase at 405 nm is continuously recorded for 15 minutes in a Molecular Devices plate reader. Final DMSO concentration was 4.3%. […] The ratio of the velocity (rate of change in absorbance as a function of time) for a sample containing no test compound is divided by the velocity of a sample containing test compound, and is plotted as a function of test compound concentration. The data are fit to a linear regression, and the value of the slope of the line calculated. The inverse of the slope is the experimentally determined Ki value.
`CSc1sc(C(=N)N)cc1S(=O)(=O)c1cccc(-c2cc(-c3ccccc3)ccc2O)c1` [Example 1, 4-(4′-Hydroxy-[1,1′;3′,1′]terphenyl-3′-sulfonyl)-5-methylsulfanyl-thiophene-2-carboxamidine trifluoroacetate] had a Ki of 6 to 23 nM.
The value for `CSc1sc(C(=N)N)cc1S(=O)(=O)c1cccc(-c2cccc(-c3ccccc3)c2O)c1` [Example 2] was 6 to 23 nM.
The value for `CSc1sc(C(=N)N)cc1S(=O)(=O)c1cccc(-c2cccc(C(=O)OC(C)C)c2C)c1` [Example 3, 3′-(5-Carbamimidoyl-2-methylsulfanyl-thiophene-3-sulfonyl)-2-methyl-biphenyl-3-carboxylic acid isopropyl ester trifluoroacetate] was 6 to 23 nM.
With `CSc1sc(C(=N)N)cc1S(=O)(=O)c1cccc(-c2c(C)cccc2C(=O)O)c1` [Example 4, 3′-(5-Carbamimidoyl-2-methylsulfanyl-thiophene-3-sulfonyl)-6-methyl-biphenyl-2-carboxylic acid trifluoroacetate], the Ki was in the range of 6 to 23 nM.
The value for `CSc1sc(C(=N)N)cc1S(=O)(=O)c1cccc(-c2c(C)cccc2CO)c1` [Example 5, 4-(6′-Hydroxymethyl-2′-methyl-biphenyl-3-sulfonyl)-5-methylsulfanyl-thiophene-2-carboxamidine] was 6 to 23 nM.
To `CSc1sc(C(=N)N)cc1S(=O)(=O)c1cccc(-c2cccc(C=O)c2C)c1` [Example 6, 4-(3′-formyl-2′-methyl-biphenyl-3-sulfonyl)-5-methylsulfanyl-thiophene-2-carboxamidine trifluoroacetate] belongs 6 to 23 nM.
The compound `CSc1sc(C(=N)N)cc1S(=O)(=O)c1cccc(-c2cc(CO)ccc2C)c1` [Example 7, 4-(5′-Hydroxymethyl-2′-methyl-biphenyl-3-sulfonyl)-5-methylsulfanyl-thiophene-2-carboxamidine trifluoroacetate] came in with a Ki of 6 to 23 nM.
To `CSc1sc(C(=N)N)cc1S(=O)(=O)c1cccc(-c2cc(C=O)ccc2C)c1` [Example 8, 4-(5′-Formyl-2′-methyl-biphenyl-3-sulfonyl)-5-methylsulfanyl-thiophene-2-carboxamidine trifluoroacetate] belongs 6 to 23 nM.
To `CSc1sc(C(=N)N)cc1S(=O)(=O)c1cccc(-c2cnccc2C)c1` [Example 9, 4-[3-(4-Methyl-pyridin-3-yl)-benzenesulfonyl]-5-methylsulfanyl-thiophene-2-carboxamidine trifluoroacetate] belongs 6 to 23 nM; to `CSc1sc(C(=N)N)cc1S(=O)(=O)c1cccc(-c2cccnc2Cl)c1` [Example 10, 4-[3-(2-Chloro-pyridin-3-yl)-benzenesulfonyl]-5-methylsulfanyl-thiophene-2-carboxamidine; bis-trifluoroacetate], 6 to 23 nM.
The value for `CSc1sc(C(=N)N)cc1S(=O)(=O)c1cccc(-c2ncccc2C)c1` [Example 11, 4-[3-(3-Methyl-pyridin-2-yl)-benzenesulfonyl]-5-methylsulfanyl-thiophene-2-carboxamidine bis-trifluoroacetate] was 6 to 23 nM and 23 nM; that for `C=CCOc1cc(Br)cc(S(=O)(=O)c2cc(C(=N)N)sc2SC)c1` [Example 12, 4-(3-Allyloxy-5-bromo-benzenesulfonyl)-5-methylsulfanyl-thiophene-2-carboxamidine hydrochloride] was 6 to 23 nM.
`COc1cc(Br)cc(S(=O)(=O)c2cc(C(=N)N)sc2SC)c1` [Example 13, 4-(3-Bromo-5-methoxy-benzenesulfonyl)-5-methylsulfanyl-thiophene-2-carboxamidine hydrochloride]: the Ki lay in the range of 6 to 23 nM.
`COc1cc(-c2ccccc2)cc(S(=O)(=O)c2cc(C(=N)N)sc2SC)c1` [Example 15, 4-(5-Methoxy-biphenyl-3-sulfonyl)-5-methylsulfanyl-thiophene-2-carboxamidine hydrochloride] registered a Ki of 6 to 23 nM.
With `C=CCOc1cc(-c2ccccc2)cc(S(=O)(=O)c2cc(C(=N)N)sc2SC)c1` [Example 16, 4-(5-Allyloxy-biphenyl-3-sulfonyl)-5-methylsulfanyl-thiophene-2-carboxamidine], the Ki was in the range of 6 to 23 nM.
To `CSc1sc(C(=N)N)cc1S(=O)(=O)c1cc(OCc2ccccc2)cc(-c2ccccc2)c1` [Example 17, 4-(5-Benzyloxy-biphenyl-3-sulfonyl)-5-methylsulfanyl-thiophene-2-carboxamidine hydrochloride] belongs 6 to 23 nM; to `CSc1sc(C(=N)N)cc1S(=O)(=O)c1cc(O)cc(-c2ccccc2Cl)c1` [Example 18, 4-(2′-Chloro-5-hydroxy-biphenyl-3-sulfonyl)-5-methylsulfanyl-thiophene-2-carboxamidine trifluoroacetate], 6 to 23 nM.
To `COc1cc(-c2ccccc2Cl)cc(S(=O)(=O)c2cc(C(=N)N)sc2SC)c1` [Example 19, 4-(2′-Chloro-5-methoxy-biphenyl-3-sulfonyl)-5-methylsulfanyl-thiophene-2-carboxamidine trifluoroacetate] belongs 6 to 23 nM; to `N=C(N)c1cc(S(=O)(=O)c2cccc(-c3cccc(C=O)c3)c2)c(Br)s1` [Example 20, 5-Bromo-4-(3′-formyl-biphenyl-3-sulfonyl)-thiophene-2-carboxamidine trifluoroacetate], 6 to 23 nM.
The value for `Cc1ccccc1-c1cccc(S(=O)(=O)c2cc(C(=N)N)sc2Br)c1` [Example 24, 5-Bromo-4-(2′-methyl-biphenyl-3-sulfonyl)-thiophene-2-carboxamidine trifluoroacetate] was 6 to 23 nM; that for `CSc1sc(C(=N)N)cc1S(=O)(=O)c1cccc(-c2c(C)cccc2N)c1` [Example 25, 4-(2′-Amino-6′-methyl-biphenyl-3-sulfonyl)-5-methylsulfanyl-thiophene-2-carboxamidine trifluoroacetate] was 6 to 23 nM; that for `CSc1sc(C(=N)N)cc1S(=O)(=O)c1cccc(-c2ccc(O)c(C=O)c2)c1` [Example 26, 4-(3′-Formyl-4′-hydroxy-biphenyl-3-sulfonyl)-5-methylsulfanyl-thiophene-2-carboxamidine trifluoroacetate] was 6 to 23 nM.
The compound `CSc1sc(C(=N)N)cc1S(=O)(=O)c1cccc(-c2cccc(C(O)C(F)(F)F)c2)c1` (centres unmarked) [Example 28, 5-Methylsulfanyl-4-[3′-(2,2,2-trifluoro-1-hydroxy-ethyl)-biphenyl-3-sulfonyl]-thiophene-2-carboxamidine trifluoroacetate] came in with an inhibition constant (Ki) of 6 to 23 nM.
In the case of `CSc1sc(C(=N)N)cc1S(=O)(=O)c1cccc(-c2cccc(C(=O)C(F)(F)F)c2)c1` [Example 29, 5-Methylsulfanyl-4-[3′-(2,2,2-trifluoro-acetyl)-biphenyl-3-sulfonyl]-thiophene-2-carboxamidine trifluoroacetate], the Ki lay in the range of 6 to 23 nM.
`CSc1sc(C(=N)N)cc1S(=O)(=O)c1cccc(-c2cc3[nH]cnc3cc2C)c1` [Example 30, 4-[3-(6-Methyl-3H-benzoimidazol-5-yl)-benzenesulfonyl]-5-methylsulfanyl-thiophene-2-carboxamidine bis-trifluoroacetate]: the Ki fell in the range of 6 to 23 nM.
To `CSc1sc(C(=N)N)cc1S(=O)(=O)c1cccc(-c2ccccc2C(C)O)c1` (centres unmarked) [Example 32, 4-[2′-(1-Hydroxy-ethyl)-biphenyl-3-sulfonyl]-5-methylsulfanyl-thiophene-2-carboxamidine trifluoroacetate] belongs 6 to 23 nM; to `CSc1sc(C(=N)N)cc1S(=O)(=O)c1cccc(-c2ccc(C(C)O)cc2)c1` (centres unmarked) [Example 33, 4-[4′-(1-Hydroxy-ethyl)-biphenyl-3-sulfonyl]-5-methylsulfanyl-thiophene-2-carboxamidine Trifluoroacetate], 6 to 23 nM; to `CSc1sc(C(=N)N)cc1S(=O)(=O)c1cccc(-c2ccccc2O)c1` [Example 34, 4-(2′-Hydroxy-biphenyl-3-sulfonyl)-5-methylsulfanyl-thiophene-2-carboxamidine trifluoroacetate], 6 to 23 nM.
As to `CSc1sc(C(=N)N)cc1S(=O)(=O)c1cccc(-c2cccc(O)c2)c1` [Example 35, 4-(3′-Hydroxy-biphenyl-3-sulfonyl)-5-methylsulfanyl-thiophene-2-carboxamidine trifluoroacetate], the Ki lay within 6 to 23 nM.
